Data taken from article PMC9354042, “Discovery of BRAF/HDAC Dual Inhibitors Suppressing Proliferation of Human Colorectal Cancer Cells” (Frontiers in Chemistry, 2022).

Key:
[1] = test system: HCT116 cells; assay: Antiproliferation CCK-8 assay, HCT116; type: cell-based; conditions: Homo sapiens, HCT-116; CCK-8, 72 h, HCT116 (wild-type BRAF); means of three independent experiments; read-out: Cellular IC50 HCT116
Experimental: (§1) HCT116 and HT-29 cells were obtained from the Shanghai Cell Bank (Type Culture Collection (TCC), Chinese Academy of Sciences) and cultured in DMEM (10–013-CVR, corning) supplemented with 10% fetal bovine serum (04-001-1A, BI), 1% penicillin/streptomycin (03-031-1B, BI).
(§2) The cells in the logarithmic phase were placed in 96-well plates (∼3000 cells/well) in a complete medium. After incubation overnight, the cells were exposed to the corresponding compounds or vehicle control at the indicated concentration for a further 72 h. Cell proliferation was evaluated using Cell Counting Kit 8 (CCK8, CK04, Dojindo Laboratories, Kumamoto, Japan). OD450 and OD650 were determined using a microplate reader. Absorbance rate (A) for each well was calculated as OD450 −OD650. […] Each IC50 value is expressed as mean ± SD. As is the absorbance rate of the test compound well, Ac is the absorbance rate of the well without either the cell or test compound, and Ab is the absorbance rate of the well with the cell and vehicle control.

[2] = test system: Ac-histone H3, Ac-α-tubulin, p-ERK in HT-29 cells; assay: Western blot analysis of HDAC and RAF pathway in HT-29 cells; type: cell-based, human; conditions: 0.12-10 μM, 6 h
Experimental: (§3) FIGURE 3 Characterization of dual inhibition of HDAC and RAF pathway. Western blot analysis of 14b in HCT116 cells (A) and in HT-29 cells (B). Cells were treated with 0 μM, 0.12 μM, 0.37 μM, 1.1 μM, 3.3 μM, and 10 μM of drugs and incubated for 6 h. The cell lysis was subjected to Western blot analysis.
(§4) The cells were treated with various concentrations of 14b for 6 h. Then, the cells were lysed using 1×SDS sample lysis buffer (CST recommended) with protease and phosphatase inhibitors. Cell lysates were loaded and electrophoresed onto 8–12% SDS-PAGE gel, and then the separated proteins were transferred to a PVDF film. The film was blocked with 5% BSA (Sigma-Aldrich, St. Louis, MO, United States) in a TBS solution containing 0.5% Tween-20 for 4 h at room temperature, then incubated with the corresponding primary antibody (1:1000–1:200) overnight at 4°C. After washing with TBST, HRP-conjugated secondary antibody was incubated for 2 h. The protein signals were visualized by the ECL Western Blotting Detection Kit (Thermo Scientific, Grand Island, NY, United States), and detected with Amersham Imager 600 system (GE, Boston, MA, United States).

[3] = test system: Ac-histone H3, Ac-α-tubulin, p-ERK in HCT116 cells; assay: Western blot analysis of HDAC and RAF pathway in HCT116 cells; type: cell-based, human; conditions: 0.12-10 μM, 6 h; for phosphorylation of ERK (p-ERK): HCT116 cells (wild-type BRAF, K-RAS G13D); for acetylated histone H3 (Ac-histone H3) / acetylated α-tubulin (Ac-α-tubulin): HCT116 cells
Experimental: as §3, §4

[4] = test system: HT-29 cells; assay: Antiproliferation CCK-8 assay, HT-29; type: cell-based; conditions: Homo sapiens; CCK-8, 72 h, HT-29 (BRAF^V600E); means of three independent experiments; read-out: Cellular IC50 HT-29
Experimental: as §1, §2

Question: Which results are given for CC(C)(C)c1nc(-c2cccc(NS(=O)(=O)c3c(F)cccc3F)c2F)c(-c2ccnc(N)n2)s1 [Dabrafenib, dabrafenib]?
Answer: IC50 [1]: > 10 µM; acetylated histone H3 (Ac-histone H3) [2]: had little impact; acetylated α-tubulin (Ac-α-tubulin) [2]: had little impact; phosphorylation of ERK (p-ERK) [2]: reduced; phosphorylation of ERK (p-ERK) ([2]; listed as dabrafenib): reduced the phosphorylation of ERK; phosphorylation of ERK (p-ERK) [3]: paradoxically induced; phosphorylation of ERK (p-ERK) ([3]; listed as dabrafenib): causes paradoxical activation of ERK; acetylated histone H3 (Ac-histone H3) [3]: had little impact; acetylated α-tubulin (Ac-α-tubulin) [3]: had little impact; IC50 [4]: 0.21 µM

Question: Which results are given for O=C(CCCCCCC(=O)Nc1ccccc1)NO [Vorinostat, vorinostat]?
Answer: acetylated histone H3 (Ac-histone H3) [2]: dose-dependently induced; acetylated α-tubulin (Ac-α-tubulin) [2]: dose-dependently induced; phosphorylation of ERK (p-ERK) [2]: had little impact; acetylated histone H3 (Ac-histone H3) ([2]; listed as vorinostat): upregulated; acetylated α-tubulin (Ac-α-tubulin) ([2]; listed as vorinostat): upregulated; phosphorylation of ERK (p-ERK) [3]: had little impact; acetylated histone H3 (Ac-histone H3) [3]: dose-dependently induced; acetylated α-tubulin (Ac-α-tubulin) [3]: dose-dependently induced; acetylated histone H3 (Ac-histone H3) ([3]; listed as vorinostat): upregulated; acetylated α-tubulin (Ac-α-tubulin) ([3]; listed as vorinostat): upregulated
